Reference: ChEMBL document CHEMBL1201862, “PubChem BioAssay data set” (2004)
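A five-concentration, 48-hour dose response in 96-well plates underlies each endpoint, interpolated linearly between surrounding concentrations. Abbreviation: GI50, concentration required for 50% inhibition of growth.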 Calls of active or inactive are those of the source. Cut-off read from the data, not from the text of the source: active = GI50 up to about 1.1 µM and inactive = higher.

Key:
Assay in all cases: NCI tumour cell line growth inhibition, 48 h
[1] = tested on: ACHN
[2] = tested on: SF-268
[3] = tested on: DMS-114
[4] = tested on: HCT-15
[5] = tested on: HCC 2998
[6] = tested on: COLO 205
[7] = tested on: IGROV-1
[8] = tested on: HOP-18
[9] = tested on: SN12C
[10] = tested on: UACC-62
[11] = tested on: M14
[12] = tested on: LOX IMVI
[13] = tested on: LXFL 529
[14] = tested on: NCI-H226
[15] = tested on: MOLT-4
[16] = tested on: SK-MEL-28
[17] = tested on: 786-0
[18] = tested on: DLD-1
[19] = tested on: K562
[20] = tested on: RPMI-8226
[21] = tested on: CAKI-1
[22] = tested on: SK-MEL-5
[23] = tested on: A498
[24] = tested on: OVCAR-4
[25] = tested on: OVCAR-8
[26] = tested on: OVCAR-5
[27] = tested on: U-251
[28] = tested on: DMS-273
[29] = tested on: SNB-75
[30] = tested on: HOP-92
[31] = tested on: UACC-257
[32] = tested on: OVCAR-3
[33] = tested on: TK-10
[34] = tested on: RXF 631
[35] = tested on: HOP-62
[36] = tested on: KM-20L2
[37] = tested on: HCT-116
[38] = tested on: KM12
[39] = tested on: CCRF-CEM
[40] = tested on: M19-MEL
[41] = tested on: SNB-78
[42] = tested on: HT-29
[43] = tested on: SW-620
[44] = tested on: UO-31
[45] = tested on: NCI-H522
[46] = tested on: NCI-H23
[47] = tested on: RXF 393
[48] = tested on: SR
[49] = tested on: SF-295
[50] = tested on: SF-539
[51] = tested on: SK-OV-3
[52] = tested on: NCI-H460
[53] = tested on: SK-MEL-2
[54] = tested on: EKVX
[55] = tested on: HL-60
[56] = tested on: A549
[57] = tested on: Malme-3M
[58] = tested on: SNB-19
[59] = tested on: XF498

Measured: GI50

C=CC(=O)N1C/C(=C\c2ccc(Cl)c(Cl)c2)C(=O)/C(=C/c2ccc(Cl)c(Cl)c2)C1
0.0716 µM: [4]
inactive: [14] 1.25 µM | [30] 1.19 µM
active: [1] 0.169 µM | [2] 0.104 µM | [3] 0.12 µM | [5] 0.204 µM | [6] 0.112 µM | [7] 0.124 µM | [8] 0.362 µM | [9] 0.155 µM | [10] 0.298 µM | [11] 0.226 µM | [12] 0.288 µM | [13] 0.127 µM | [15] 0.103 µM | [16] 0.458 µM | [17] 0.0579 µM | [18] 0.0374 µM | [19] 0.0404 µM | [20] 0.0246 µM | [21] 0.244 µM | [22] 0.478 µM | [23] 0.63 µM | [24] 0.0318 µM | [25] 0.115 µM | [26] 0.294 µM | [27] 0.0226 µM | [28] 0.155 µM | [29] 0.187 µM | [31] 0.474 µM | [32] 0.0865 µM | [33] 0.501 µM | [34] 0.449 µM | [35] 0.264 µM | [36] 0.216 µM | [37] 0.0612 µM | [38] 0.237 µM | [39] 0.0228 µM | [40] 0.184 µM | [41] 0.261 µM | [42] 0.0673 µM | [43] 0.0607 µM | [44] 0.207 µM | [45] 0.149 µM | [46] 0.2 µM | [47] 0.148 µM | [48] 0.0259 µM | [49] 0.233 µM | [50] 0.181 µM | [51] 0.378 µM | [52] 0.152 µM | [53] 0.42 µM

Cn1c(=O)c2/c(n(C)c1=O)=N\C=c1\c(=O)n(C)c(=O)n(C)\c1=N\C=2
inactive: [1] > 100 µM | [54] > 100 µM | [2] > 100 µM | [3] > 100 µM | [55] > 100 µM | [5] > 100 µM | [6] > 100 µM | [7] > 100 µM | [8] > 100 µM | [9] > 100 µM | [56] > 100 µM | [10] > 100 µM | [11] > 100 µM | [57] > 100 µM | [13] > 100 µM | [15] > 100 µM | [16] > 100 µM | [17] > 100 µM | [18] > 100 µM | [19] > 100 µM | [21] > 100 µM | [22] > 100 µM | [23] > 100 µM | [24] > 100 µM | [25] > 100 µM | [26] > 100 µM | [27] > 100 µM | [29] 39.4 µM | [30] > 100 µM | [31] > 100 µM | [32] > 100 µM | [33] > 100 µM | [34] > 100 µM | [35] > 100 µM | [58] > 100 µM | [36] > 100 µM | [37] > 100 µM | [38] > 100 µM | [39] > 100 µM | [40] > 100 µM | [41] 76.2 µM | [42] > 100 µM | [43] > 100 µM | [44] > 100 µM | [45] > 100 µM | [46] > 100 µM | [47] > 100 µM | [49] > 100 µM | [50] > 100 µM | [52] > 100 µM | [53] > 100 µM
> 100 µM: [4]

O=C(CC(=O)N1N=C(c2ccccc2)C(/N=N/c2ccccc2Cl)C1=O)Nc1ccccc1Cl (centres undefined)
inactive: [1] 20.2 µM | [54] 33.1 µM | [2] 31.5 µM | [3] 54.1 µM | [55] 13 µM | [5] > 100 µM | [6] 31.6 µM | [7] 63.1 µM | [9] 58.5 µM | [56] 21.4 µM | [10] 37.7 µM | [11] 37.9 µM | [12] 31.3 µM | [13] 26.2 µM | [14] 42.7 µM | [15] 28.6 µM | [16] 44.3 µM | [17] 20.8 µM | [18] 23 µM | [19] 31.1 µM | [59] 20.7 µM | [20] 17.3 µM | [21] 30.8 µM | [22] 17.1 µM | [23] > 10 µM | [24] 20.7 µM | [25] 31.7 µM | [26] > 100 µM | [27] 32.1 µM | [28] 37.5 µM | [29] 21.1 µM | [31] 48.4 µM | [32] 28.1 µM | [33] 15.4 µM | [34] 48.5 µM | [35] 33 µM | [58] 40.4 µM | [36] 46.3 µM | [37] 25.9 µM | [38] 14.1 µM | [40] 32.2 µM | [41] 40.9 µM | [42] 19.9 µM | [43] 29.9 µM | [44] 57.9 µM | [45] 28.9 µM | [46] 39.8 µM | [48] 19.3 µM | [49] 27.4 µM | [50] 29.9 µM | [51] 28.6 µM | [52] 56.2 µM | [53] 43.5 µM
40.1 µM: [4]
